The numbers were not newly measured in patent US12280058B2, “Gasotransmitter metabolites and Alzheimer's disease” (Board of Supervisors of Louisiana State University and …, priority 2020, dated 2025), which cites them from elsewhere.

A word on the IC50: it is the concentration needed to halve the response being measured.

The structures appear in SMILES notation.

One data set concerns infarct. As to conditions: administration.
In the next data set the target is CSE (Homo sapiens, UniProt P32929). To be noted: read-out: IC50 (CSE inhibitor).
Sequence of CSE (P32929 whole entry, species assumed): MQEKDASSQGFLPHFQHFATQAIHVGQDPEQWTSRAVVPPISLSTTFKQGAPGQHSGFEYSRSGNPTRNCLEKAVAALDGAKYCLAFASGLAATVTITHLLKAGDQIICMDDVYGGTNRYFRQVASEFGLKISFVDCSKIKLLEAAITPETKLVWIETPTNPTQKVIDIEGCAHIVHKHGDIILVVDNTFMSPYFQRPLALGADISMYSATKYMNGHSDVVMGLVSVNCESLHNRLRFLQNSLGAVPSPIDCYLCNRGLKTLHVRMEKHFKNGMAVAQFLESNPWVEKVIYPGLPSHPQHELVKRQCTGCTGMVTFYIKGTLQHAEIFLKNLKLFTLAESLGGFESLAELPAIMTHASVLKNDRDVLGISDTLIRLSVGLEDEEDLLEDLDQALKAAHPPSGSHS

For `S` [sodium hydrosulfide], the “infarct volume / size of infarct” value in the data set on infarct is given as “increased infarct volume”.

In the case of `C#CC[C@H](N)C(=O)O`, the IC50 on CSE was 40 µM.

Regarding `NCCO/C=C/[C@H](N)C(=O)O` [L-aminoethoxyvinylglycine], at CSE, the IC50 was less than 1 µM.

Regarding `CCOc1ccc2nc(Sc3nc(Nc4cccc([N+](=O)[O-])c4)nc(Nc4cc(OC)ccc4OC)n3)sc2c1` [compound 1157172, 2-[(4-(2,5-dimethoxyanilino)-6-(3-nitroanilino)-1,3,5-triazin-2-yl)sulfanyl]-6-ethoxy-1,3-benzothiazole], the IC50 at CSE is 30 µM.
